Results reported in patent US20080194585A1, “Fungicidal Pyrazine Derivatives” (priority 2005, published 2008).
Read-outs that look alike come from different tables or passages of the source. Marks after values point to notes of the source that are not given here.

Assays:
Septoria tritici = test: Test J: wheat leaf blotch, preventive spray on wheat seedlings; format: in vivo
From the text: A dash (-) indicates no test results.

Septoria nodorum = test: Test H: wheat glum blotch, preventive spray on wheat seedlings; details: for pest or weed control at 200 ppm: read-out: Test H disease control rating, 200 ppm
Procedure: (the causal agent of wheat glum blotch) and incubated in a saturated atmosphere at 20° C. for 48 h, and then moved to a growth chamber at 22° C. for 5 days, after which disease ratings were made.

Rhizoctonia oryzae = test: Test G: turf brown patch, preventive spray on creeping bent grass seedlings; details: for pest or weed control at 200 ppm: read-out: Test G disease control rating, 200 ppm
Procedure: (the causal agent of turf brown patch) and incubated in a saturated atmosphere at 27° C. for 24 h, and then moved to a growth chamber at 27° C. for 5 days, after which disease ratings were made.

Pythium aphanidermatum = test: Test A: bluegrass pythium blight, preventive spray on bluegrass seedlings; details: for Test A disease control rating: 200 ppm; for pest or weed control at 200 ppm: Pythium aphanidermatum, 120 h, read-out: Test A disease control rating
Phytophthora infestans = test: whole plant or invertebrate; format: in vivo; details: for Test F disease control rating: 200 ppm; for pest or weed control at 200 ppm: Phytophthora infestans, in Solanum lycopersicum, topical, 144 h, read-out: Test F disease control rating
fusarium graminearium = test: Test I: wheat head scab, preventive spray on wheat seedlings; details: for Test I disease control rating: 200 ppm; for pest or weed control at 200 ppm: Fusarium, in Triticum aestivum, topical, 192 h, read-out: Test I disease control rating, 200 ppm
Procedure: (the causal agent of wheat head scab) and incubated in a saturated atmosphere at 20° C. for 72 h, and then moved to a growth chamber at 22° C. for 5 days, after which disease ratings were made.

[1] = system: Erysiphe graminis f. sp. tritici; test: Test L: wheat powdery mildew, preventive spray on wheat seedlings; details: for pest or weed control at 200 ppm: read-out: Test L disease control rating, 200 ppm
[2] = system: Colletotrichum orbiculare; test: Test B: cucumber Colletotrichum anthracnose, preventive spray on cucumber seedlings; details: for pest or weed control at 200 ppm: read-out: Test B disease control rating, 200 ppm
Sclerotinia sclerotiorum = test: Test C: cucumber white mold, preventive spray on cucumber seedlings; details: for Test C disease control rating: 200 ppm; for pest or weed control at 200 ppm: Sclerotinia sclerotiorum, in Cucumis sativus, 168 h, read-out: Test C disease control rating, 200 ppm
Plasmopara viticola = test: Test D: grape downy mildew, spray after inoculation of grape seedlings; format: in vivo; details: 200 ppm; for pest or weed control at 200 ppm: Plasmopara viticola, 168 h, read-out: Test D disease control rating
From the text: Upon removal, disease ratings were made. […] A dash (-) indicates no test results.

[3] = system: Puccinia recondita f. sp. tritici; test: Test K: wheat leaf rust, preventive spray on wheat seedlings
Botrytis cinerea = test: Test E: tomato botrytis, preventive spray on tomato seedlings
[4] = 200 ppm, 100 = 100% disease control, 0 = no control
[5] = 100 = 100% disease control, 0 = no control
[6] = Parastagonospora nodorum, in Triticum aestivum, topical, 168 h
[7] = Waitea circinata, in Agrostis stolonifera, topical, 144 h
[8] = Blumeria graminis, in Triticum aestivum, 168 h
[9] = Colletotrichum orbiculare, in Cucumis sativus, 144 h
[10] = Puccinia recondita, in Triticum aestivum, 192 h, read-out: Test K disease control rating
[11] = Botrytis cinerea, in Solanum lycopersicum, topical, 72 h, read-out: Test E disease control rating
[12] = 40 ppm (marked *), 100 = 100% disease control, 0 = no control

Structure (SMILES)	Test C disease control rating (Sclerotinia sclerotiorum; [5]) [%]	Test D disease control rating (Plasmopara viticola; [5]) [%]	Test A disease control rating (Pythium aphanidermatum) [%]	Test F disease control rating (Phytophthora infestans) [%]	Test J disease control rating (Septoria tritici; 200 ppm) [%]	Test H disease control rating (Septoria nodorum; 200 ppm) [%]	Test G disease control rating (Rhizoctonia oryzae; 200 ppm) [%]	Test I disease control rating (fusarium graminearium) [%]	Test L disease control rating ([1]; 200 ppm) [%]	Test B disease control rating ([2]; 200 ppm) [%]	Test C disease control rating (Sclerotinia sclerotiorum) [%]	Test D disease control rating (Plasmopara viticola) [%]	Test K disease control rating ([3]; 200 ppm) [%]	Test E disease control rating (Botrytis cinerea; 200 ppm) [%]	further results
CCC(C)Cn1c(-c2ccc(F)cc2Cl)c(Cl)nc(-n2cc(Br)c(C)n2)c1=O (racemic) [compound 260]	0	0	–	–	–	–	–	–	–	–	–	–	–	–	Test J disease control rating (Septoria tritici; [4]): 97%; Test H disease control rating (Septoria nodorum; [4]): 0%; Test G disease control rating (Rhizoctonia oryzae; [4]): 0%; Test A disease control rating (Pythium aphanidermatum; [5]): 0%; Test F disease control rating (Phytophthora infestans; [5]): 0%; Test I disease control rating (fusarium graminearium; [5]): 0%; Test L disease control rating [1, 4]: 50%; Test B disease control rating [2, 4]: 9%; Test K disease control rating [3, 4]: 80%; Test E disease control rating (Botrytis cinerea; [4]): 99%
CCC(C)Cn1c(-c2ccc(F)cc2Cl)c(Cl)nc(-n2ccc(C(OC)OC)n2)c1=O (racemic) [compound 261]	83	40	–	–	–	–	–	–	–	–	–	–	–	–	Test J disease control rating (Septoria tritici; [4]): 100%; Test H disease control rating (Septoria nodorum; [4]): 99%; Test G disease control rating (Rhizoctonia oryzae; [4]): 0%; Test A disease control rating (Pythium aphanidermatum; [5]): 0%; Test F disease control rating (Phytophthora infestans; [5]): 0%; Test I disease control rating (fusarium graminearium; [5]): 0%; Test L disease control rating [1, 4]: 98%; Test B disease control rating [2, 4]: 100%; Test K disease control rating [3, 4]: 100%; Test E disease control rating (Botrytis cinerea; [4]): 100%
CC(C)Cn1c(-c2c(F)cccc2F)c(Cl)nc(-c2ccccn2)c1=O [Compound 2, 5-Chloro-6-(2,6-difluorophenyl)-1-(2-methylpropyl)-3-(2-pyridinyl)-2(1H)-pyrazinone]	–	–	–	–	–	–	–	–	–	–	–	–	–	–	pest or weed control at 200 ppm (Septoria tritici; Zymoseptoria tritici, 528 h, 200 ppm, read-out: Test J disease control rating): 99%; pest or weed control at 200 ppm (Septoria nodorum; [6]): 100%; pest or weed control at 200 ppm (Rhizoctonia oryzae; [7]): 100%; pest or weed control at 200 ppm (Pythium aphanidermatum): 38%; pest or weed control at 200 ppm (Phytophthora infestans): 0%; pest or weed control at 200 ppm (fusarium graminearium): 97%; pest or weed control at 200 ppm [1, 8]: 100%; pest or weed control at 200 ppm [2, 9]: 100%; pest or weed control at 200 ppm (Sclerotinia sclerotiorum): 97%; pest or weed control at 200 ppm (Plasmopara viticola): 77%; pest or weed control at 200 ppm [3, 10]: 100%; pest or weed control at 200 ppm (Botrytis cinerea; [11]): 100%
CC(C)Cn1c(-c2ccc(F)cc2Cl)c(Cl)nc(-n2cccn2)c1=O [Compound 53, 5-Chloro-6-(2-chloro-4-fluorophenyl)-1-(2-methylpropyl)-3-(1H-pyrazol-1-yl)-2(1H)-pyrazinone]	–	–	0	0	–	–	–	–	–	–	–	–	–	–	Test J disease control rating (Septoria tritici; 40 ppm (*)): 100* %; pest or weed control at 200 ppm (Septoria nodorum; [6]): 100%; pest or weed control at 200 ppm (Rhizoctonia oryzae; [7]): 82%; pest or weed control at 200 ppm (fusarium graminearium): 90%; pest or weed control at 200 ppm [1, 8]: 99%; pest or weed control at 200 ppm [2, 9]: 100%; pest or weed control at 200 ppm (Sclerotinia sclerotiorum): 99%; pest or weed control at 200 ppm (Plasmopara viticola): 0%; pest or weed control at 200 ppm [3, 10]: 100%; pest or weed control at 200 ppm (Botrytis cinerea; [11]): 100%
CC(C)Cn1c(-c2ccc(F)cc2Cl)c(Cl)nc(-n2cccn2)c1=O [Compound 302, 5-Chloro-6-(2-chloro-4-fluorophenyl)-1-(2-methylpropyl)-3-(1H-pyrazol-1-yl)-2(1H)-pyrazinone]	60	0	–	–	–	–	–	–	–	–	–	–	–	–	pest or weed control at 40 ppm (Septoria tritici; Zymoseptoria tritici, 528 h, 40 ppm (marked *), 100 = 100% disease control, 0 = no control, read-out: Test J disease control rating): 100%; pest or weed control at 40 ppm (Septoria nodorum; Parastagonospora nodorum, in Triticum aestivum, topical, 168 h, read-out: Test H disease control rating, 40 ppm (marked *), 100 = 100% disease control, 0 = no control): 99%; pest or weed control at 40 ppm (Rhizoctonia oryzae; Waitea circinata, in Agrostis stolonifera, topical, 144 h, read-out: Test G disease control rating, 40 ppm (marked *), 100 = 100% disease control, 0 = no control): 94%; pest or weed control at 200 ppm (Pythium aphanidermatum): 0%; pest or weed control at 200 ppm (Phytophthora infestans): 0%; pest or weed control at 200 ppm (fusarium graminearium; [5]): 0%; pest or weed control at 40 ppm ([1]; Blumeria graminis, in Triticum aestivum, 168 h, read-out: Test L disease control rating, 40 ppm (marked *), 100 = 100% disease control, 0 = no control): 98%; pest or weed control at 40 ppm ([2]; Colletotrichum orbiculare, in Cucumis sativus, 144 h, read-out: Test B disease control rating, 40 ppm (marked *), 100 = 100% disease control, 0 = no control): 98%; pest or weed control at 40 ppm [3, 10]: 100%; pest or weed control at 40 ppm (Botrytis cinerea; [11]): 100%
CC(C)Cn1c(-c2ccc(F)cc2Cl)c(Cl)nc(-n2cccn2)c1=O [Compound 303, 5-Chloro-6-(2-chloro-4-fluorophenyl)-1-(2-methylpropyl)-3-(1H-pyrazol-1-yl)-2(1H)-pyrazinone]	94	58	–	–	–	–	–	–	–	–	–	–	–	–	Test J disease control rating (Septoria tritici; [12]): 100* %; Test H disease control rating (Septoria nodorum; [12]): 100* %; Test G disease control rating (Rhizoctonia oryzae; [12]): 100* %; Test A disease control rating (Pythium aphanidermatum; [5]): 0%; Test F disease control rating (Phytophthora infestans; [5]): 0%; Test I disease control rating (fusarium graminearium; [5]): 0%; Test L disease control rating [1, 12]: 100* %; Test B disease control rating [2, 12]: 100* %; Test K disease control rating [3, 12]: 100* %; Test E disease control rating (Botrytis cinerea; [12]): 100* %
CC(C)Cn1c(-c2c(F)cc(F)cc2F)c(Cl)nc(-n2cccn2)c1=O [compound 7]	–	–	51	0	100	100	95	99	100	100	95	88	100	100	–
O=c1c(-n2cccn2)nc(Cl)c(-c2c(F)cccc2F)n1CC1CC1 [compound 18]	–	–	0	0	100	100	100	0	100	100	99	98	100	100	–
CCC(C)Cn1c(-c2c(F)cc(F)cc2F)c(Cl)nc(-n2cccn2)c1=O (stereo not drawn) [compound 19]	–	–	0	27	100	100	100	90	100	100	98	46	100	100	–
CC(C)Cn1c(-c2ccc(Cl)cc2)c(Cl)nc(-n2cncn2)c1=O [compound 23]	–	–	0	0	98	98	33	68	0	21	0	0	68	99	–
Cc1nc(C)n(-c2nc(Cl)c(-c3ccc(Cl)cc3)n(CC(C)C)c2=O)n1 [compound 24]	–	–	0	0	80	0	0	0	0	0	0	5	0	0	–
CC(C)Cn1c(-c2c(Cl)cccc2Cl)c(Cl)nc(-n2cccn2)c1=O [compound 43]	–	–	0	0	–	100	92	0	96	99	94	0	100	100	Test J disease control rating (Septoria tritici; 40 ppm (*)): 100* %
